Assay results taken from publication PMC8580319, “Dual activities of ACC synthase: Novel clues regarding the molecular evolution of ACS genes” (Science Advances, 2021).

How the values were obtained:
Assay in all cases: pyruvate formation, […],4-dinitrophenylhydrazine, A520
Assay type in all cases: biochemical
Conditions in all cases: Cβ-S lyase activity; 4 mM L-cystine, 100 μM PLP, 30°C
[1] = molecular target: T1, AtACS6 (Arabidopsis thaliana, UniProt Q9SAR0)
T1 construct: gene ACS6; recombinant, His or GST tag, from E. coli
T1 sequence (Q9SAR0 1-495): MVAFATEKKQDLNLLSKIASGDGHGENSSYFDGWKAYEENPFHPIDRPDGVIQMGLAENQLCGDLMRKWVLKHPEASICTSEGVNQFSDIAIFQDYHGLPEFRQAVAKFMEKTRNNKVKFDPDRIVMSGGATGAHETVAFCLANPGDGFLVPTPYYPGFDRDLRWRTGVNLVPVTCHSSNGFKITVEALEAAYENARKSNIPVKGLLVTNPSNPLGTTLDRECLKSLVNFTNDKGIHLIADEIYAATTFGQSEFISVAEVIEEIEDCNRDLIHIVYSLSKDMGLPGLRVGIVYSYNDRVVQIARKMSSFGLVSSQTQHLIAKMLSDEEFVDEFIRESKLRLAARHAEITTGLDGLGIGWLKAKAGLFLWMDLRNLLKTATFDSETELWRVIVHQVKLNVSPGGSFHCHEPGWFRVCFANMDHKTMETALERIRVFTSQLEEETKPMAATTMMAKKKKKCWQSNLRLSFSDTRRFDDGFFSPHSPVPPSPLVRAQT

[2] = molecular target: T2, SlACS4 (Solanum lycopersicum, UniProt P29535)
T2 construct: gene ACS4; recombinant, His or GST tag, from E. coli
T2 sequence (P29535 whole entry): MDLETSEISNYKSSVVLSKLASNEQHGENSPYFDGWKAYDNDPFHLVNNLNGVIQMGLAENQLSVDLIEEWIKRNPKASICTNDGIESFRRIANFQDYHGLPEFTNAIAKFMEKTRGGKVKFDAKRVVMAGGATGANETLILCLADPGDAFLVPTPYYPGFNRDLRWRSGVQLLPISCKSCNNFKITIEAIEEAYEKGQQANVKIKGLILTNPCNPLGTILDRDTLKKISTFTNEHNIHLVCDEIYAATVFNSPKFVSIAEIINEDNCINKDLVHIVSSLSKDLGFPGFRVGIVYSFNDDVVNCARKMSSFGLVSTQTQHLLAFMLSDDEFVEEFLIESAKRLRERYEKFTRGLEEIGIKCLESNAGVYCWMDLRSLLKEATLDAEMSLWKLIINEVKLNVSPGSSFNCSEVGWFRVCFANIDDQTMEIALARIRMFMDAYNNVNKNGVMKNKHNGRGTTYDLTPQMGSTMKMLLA

[3] = molecular target: T3, AtACS7 (Arabidopsis thaliana, UniProt Q9STR4, Q98A)
T3 construct: gene ACS7; recombinant from E. coli Rosetta 2 (DE3) pLysS; pET-28a (His) or pGEX-6p-1 (GST); His-tagged protein for crystals; dimer
T3 sequence (Q9STR4 1-447 Q98A): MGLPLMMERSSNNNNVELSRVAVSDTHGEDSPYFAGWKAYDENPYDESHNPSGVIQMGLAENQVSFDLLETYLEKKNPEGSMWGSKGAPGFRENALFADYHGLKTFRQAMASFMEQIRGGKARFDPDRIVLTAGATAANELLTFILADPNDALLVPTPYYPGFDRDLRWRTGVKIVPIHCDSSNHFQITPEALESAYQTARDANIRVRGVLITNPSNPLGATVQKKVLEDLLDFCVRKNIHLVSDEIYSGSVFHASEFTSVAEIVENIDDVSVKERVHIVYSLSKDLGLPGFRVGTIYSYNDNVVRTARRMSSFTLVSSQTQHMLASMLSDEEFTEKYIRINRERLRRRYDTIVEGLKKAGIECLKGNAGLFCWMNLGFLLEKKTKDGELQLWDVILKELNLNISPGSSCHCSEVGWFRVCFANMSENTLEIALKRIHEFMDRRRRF

## N[C@@H](CSSC[C@H](N)C(=O)O)C(=O)O [L-cystine]
[1]
  pyruvate formation, 2,4-dinitrophenylhydrazine, A520: all of them had ACS and Cβ-S lyase dual enzymatic activities
[2]
  pyruvate formation, 2,4-dinitrophenylhydrazine, A520: all of them had ACS and Cβ-S lyase dual enzymatic activities
[3]
  pyruvate formation, 2,4-dinitrophenylhydrazine, A520: the mutant had high in vitro Cβ-S lyase activity
